Source: patent US6392045B1, “9-azobicyclo[3.3.1] non-2-ene derivatives as cholinergic ligands at nicotinic ACH receptors” (NeuroSearch A/S, priority 1997, dated 2002)
Counter-ions that a name gives are not always drawn. Like-named read-outs stand apart in the source and are kept apart here.

Assays:
[1] = molecular target: nAChRs comprised of α4 and β2 subunits (Rattus norvegicus, UniProt P09483+P12390); experiment: In vitro inhibition of 3H-cytisine binding
Method: In Vitro Inhibition of ^3H-cytisine Binding
The predominant subtype with high affinity for nicotine is comprised of α4 and β2 subunits. nAChRs of the latter type can selectively be labelled by the nicotine agonist ^3H-cytisine.
Tissue Preparation: Preparations are performed at 0-4° C. unless otherwise indicated. […] The homogenate is centrifuged at 27,000×g for 10 min. The supernatant is discarded and the pellet is resuspended in fresh buffer and centrifuged a second time. The final pellet is resuspended in fresh buffer (35 ml per g of original tissue) and used for binding assays.
Assay: Aliquots of 500 μl homogenate are added to 25 μl of test solution and 25 μl of ^3H-cytisine (1 nM, final concentration), mixed and incubated for 90 min at 2° C. Non-specific binding is determined using (−)-nicotine (100 μM, final concentration). After incubation the samples are added 5 ml of ice-cold buffer and poured directly onto Whatman GF/C glass fibre filters under suction and immediately washed with 2×5 ml ice-cold buffer. The amount of radioactivity on the filters is determined by conventional liquid scintillation counting. Specific binding is total binding minus non-specific binding.

[2] = molecular target: T1, α4β2 subtype of nicotinic receptors (neuronal nicotinic receptors) (Rattus norvegicus, UniProt P09483+P12390); experiment: In vitro inhibition of 3H-epibatidin binding
T1 construct: The forebrain (÷cerebellum) from a male Wistar rat (150-250 g) is homogenized; from tissue; host or cells: rat forebrain (without cerebellum) homogenate (male Wistar)
T1 sequence (P09483 31-630): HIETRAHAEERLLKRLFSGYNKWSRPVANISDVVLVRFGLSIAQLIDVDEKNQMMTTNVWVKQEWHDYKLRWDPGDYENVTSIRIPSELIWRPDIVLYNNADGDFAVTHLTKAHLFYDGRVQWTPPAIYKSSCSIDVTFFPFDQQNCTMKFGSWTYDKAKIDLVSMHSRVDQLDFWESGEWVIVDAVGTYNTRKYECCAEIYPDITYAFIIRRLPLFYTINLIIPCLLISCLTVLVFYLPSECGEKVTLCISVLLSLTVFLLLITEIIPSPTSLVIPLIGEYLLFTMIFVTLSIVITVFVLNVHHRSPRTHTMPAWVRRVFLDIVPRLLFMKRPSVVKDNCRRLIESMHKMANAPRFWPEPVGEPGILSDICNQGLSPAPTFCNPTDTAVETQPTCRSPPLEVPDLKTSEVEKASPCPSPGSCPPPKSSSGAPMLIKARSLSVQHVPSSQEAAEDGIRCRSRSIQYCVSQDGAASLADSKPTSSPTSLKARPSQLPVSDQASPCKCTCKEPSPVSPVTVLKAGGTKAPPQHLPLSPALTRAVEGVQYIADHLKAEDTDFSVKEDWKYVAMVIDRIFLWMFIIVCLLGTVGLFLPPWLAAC
T1 sequence (P12390 25-500): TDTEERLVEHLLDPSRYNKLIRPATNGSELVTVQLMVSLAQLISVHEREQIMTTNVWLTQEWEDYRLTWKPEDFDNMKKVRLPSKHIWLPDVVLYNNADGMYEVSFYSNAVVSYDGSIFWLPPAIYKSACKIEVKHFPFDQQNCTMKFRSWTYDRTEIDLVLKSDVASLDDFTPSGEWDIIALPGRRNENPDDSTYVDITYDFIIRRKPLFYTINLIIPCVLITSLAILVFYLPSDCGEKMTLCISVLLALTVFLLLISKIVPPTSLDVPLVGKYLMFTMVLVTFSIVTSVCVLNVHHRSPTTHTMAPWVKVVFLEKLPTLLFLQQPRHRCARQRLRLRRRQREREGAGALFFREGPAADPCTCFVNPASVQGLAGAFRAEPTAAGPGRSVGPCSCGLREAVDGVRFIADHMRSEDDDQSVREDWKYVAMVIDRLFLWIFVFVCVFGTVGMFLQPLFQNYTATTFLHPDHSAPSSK
Method: In Vitro Inhibition of ^3H-epibatidin Binding
The high affinity binding site for ^3H-epibatidin is most certainly binding to the α4β2 subtype of nicotinic receptors. The identity of the low affinity site is still unknown; does it represent a second nicotinic receptor or a second site in the same receptor.
Tissue preparation: Preparations are performed at 0-4° C. unless otherwise indicated. The forebrain (÷cerebellum) from a male Wistar rat (150-250 g) is homogenized for 10-20 sec in 20 ml Tris, HCl (50 mM, pH 7.4) using an Ultra-Turrax homogenizer. The tissue suspension is centrifuged at 27,000×g for 10 min. The supernatant is discarded and the pellet is washed three times by centrifugation at 27,000×g for 10 min in 20 ml fresh buffer, and the final pellet is resuspended in fresh buffer (400 ml per g of original tissue) and used for binding assays.
Assay: Aliquots of 2.0 ml homogenate are added to 0.100 ml of test solution and 0.100 ml of ^3H-epibatidin (0.3 nM, final concentration), mixed and incubated for 60 min at room temperature. Non-specific binding is determined using (−)-nicotine (30 μM, final concentration). After incubation the samples are poured directly onto Whatman GF/C glass fibre filters (presoaked in 0.1% PEI for at least 20 min) under suction and immediately washed with 2×5 ml ice-cold buffer. The amount of radioactivity on the filters is determined by conventional liquid scintillation counting. Specific binding is total binding minus non-specific binding.

[3] = molecular target: nAChR formed by the α7 subunit isoform (Rattus norvegicus, UniProt Q05941); experiment: biochemical; format: binding
nAChR formed by the α7 subunit isoform, sequence (Q05941 23-502): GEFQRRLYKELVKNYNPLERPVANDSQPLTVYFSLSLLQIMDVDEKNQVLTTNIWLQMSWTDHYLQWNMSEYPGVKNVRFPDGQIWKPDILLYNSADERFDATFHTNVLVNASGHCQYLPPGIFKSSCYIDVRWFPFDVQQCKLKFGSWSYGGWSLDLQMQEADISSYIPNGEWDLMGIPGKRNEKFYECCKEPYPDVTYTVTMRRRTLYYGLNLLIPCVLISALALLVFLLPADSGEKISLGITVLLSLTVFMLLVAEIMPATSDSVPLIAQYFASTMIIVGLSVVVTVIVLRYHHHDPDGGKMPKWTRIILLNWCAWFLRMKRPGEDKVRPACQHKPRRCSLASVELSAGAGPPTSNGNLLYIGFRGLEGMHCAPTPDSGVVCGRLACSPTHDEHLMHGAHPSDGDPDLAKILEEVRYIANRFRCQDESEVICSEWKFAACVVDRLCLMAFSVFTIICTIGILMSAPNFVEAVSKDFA

[4] = rat cerebral cortex homogenate, 1 nM 3H-cytisine, 90 min at 2° C., read-out: 3H-cytisine IC50
[5] = read-out: 3H-α-bungarotoxin IC50

nAChRs comprised of α4 and β2 subunits, sequence (P09483 31-630): as the sequence (P09483 31-630) above
nAChRs comprised of α4 and β2 subunits, sequence (P12390 25-500): as the sequence (P12390 25-500) above

SMILES	melting point	IC50 [1, 4]	IC50 [2]	IC50 [3]	IC50 [1]	IC50 [3, 5]	IC50 ([2]; rat forebrain homogenate, 0.3 nM 3H-epibatidin, 60 min at room temperature, read-out: 3H-epibatidin IC50)
CN1C2C=C(c3cncc(-c4ccccc4)c3)CC1CCC2 (racemic) (as salt: fumaric acid salt) [Compound 3a, (±)-9-Methyl-3-[3-(5-phenyl)-pyridyl]-9-azabicyclo[3.3.1]non-2-ene Fumaric Acid Salt]	147.5 to 149.5 °C						
CN1C2C=C(c3cc4ccccc4o3)CC1CCC2 (racemic) [Compound 4a, (±)-3-(2-Benzofuryl)-9-methyl-9-azabicyclo[3.1]non-2-ene Fumaric Acid Salt]		> 300000 nM	> 300000 nM	190 nM			
CN1[C@@H]2CCC[C@H]1C[C@H](c1cccnc1)C2 [Compound 8a, Exo-9-Methyl-3-(3-pyridyl)-9-azabicyclo[3.3.1]nonane]	69 to 70 °C		110 nM		18 nM	1400 nM	
CN1C2C=C(c3cc4ccccc4s3)CC1CCC2 (racemic) [Compound 7a, (±)-3-(2-Benzothienyl)-9-methyl-9-azabicyclo[3.3.1]non-2-ene]		280000 nM	280000 nM	160 nM			
CN1C2C=C(c3cccc(N4CCCC4)c3)CC1CCC2 (racemic) [Compound 3c, (±)-3-[3-(1-Pyrrolidinyl)-phenyl]-9-methyl-9-azabicyclo[3.3.1]non-2-ene]		> 10000 nM	> 10000 nM	18000 nM			
CN1C2C=C(c3cccnc3)CC1CCC2.O=C(O)/C=C/C(=O)O (racemic) [Compound 1a, (±)-9-Methyl-3-(3-pyridyl)-9-azabicyclo[3.3.1]non-2-ene Fumaric Acid Salt]	164.5 to 166.5 °C		84 nM		23 nM	500 nM	
CN1C2C=C(c3cncnc3)CC1CCC2.O=C(O)/C=C/C(=O)O (racemic) [Compound 1b, (±)-9-Methyl-3-(5-pyrimidyl)-9-azabicyclo[3.3.1]non-2-ene Fumaric Acid Salt]	198 to 202 °C		52 nM		78 nM	1600 nM	
CN1C2C=C(c3nc4ccccc4s3)CC1CCC2.O=C(O)/C=C/C(=O)O (racemic)	176 to 177 °C						
CN1C2C=C(c3cnc4ccccc4c3)CC1CCC2.O=C(O)/C=C/C(=O)O (racemic) [Compound 6b, (±)-3-(3-Quinolinyl)-9-methyl-9-azabicyclo[3.3.1]non-2-ene Fumaric Acid Salt]	195 to 197 °C	1000 nM		350 nM			8300 nM
COc1ccc(C2=CC3CCCC(C2)N3C)cn1 (racemic) [Compound 5b, (±)-3-[3-(6-Methoxy)-pyridyl)]-9-methyl-9-azabicyclo[3.3.1]non-2-ene Fumaric Acid Salt]			17000 nM		2000 nM	2300 nM	
CN1C2C=C(c3ccc4c(c3)OCO4)CC1CCC2.O=C(O)/C=C/C(=O)O (racemic)	159 to 163 °C						
COc1cncc(C2=CC3CCCC(C2)N3C)c1 (racemic) [Compound 2a, (±)-3-[3-(5-Methoxy)-pyridyl]-9-methyl-9-azabicyclo[3.3.1]non-2-ene Fumaric Acid Salt]			76 nM		17 nM	2000 nM	
C1=C(c2cccnc2)CC2CCCC1N2Cc1ccccc1.O=C(O)/C=C/C(=O)O (racemic)	186 to 187 °C						
CCN1C2C=C(c3cccnc3)CC1CCC2.O=C(O)/C=C/C(=O)O (racemic) [Compound 6a, (±)-9-Ethyl-3-(3-pyridyl)-9-azabicyclo[3.3.1]non-2-ene Fumaric Acid Salt]	193 to 195 °C		1700 nM		1800 nM	5800 nM	
CN1C2C=C(c3cccn3C)CC1CCC2 (racemic) [Compound 1d, (±)-3-[2-(1-Methyl-pyrrolyl)]-9-methyl-9-azabicyclo[3.3.1]non-2-ene]					1800 nM	1900 nM	
CN1C2C=C(c3cccc([N+](=O)[O-])c3)CC1CCC2.O=C(O)/C=C/C(=O)O (racemic) [Compound 5c, (±)-9-Methyl-3-(3-nitrophenyl)-9-azabicyclo[3.3.1]non-2-ene Fumaric Acid Salt]	133 to 144 °C		3900 nM		2700 nM	2200 nM	
CN1C2C=C(c3ccoc3)CC1CCC2.O=C(O)/C=C/C(=O)O (racemic) [Compound 4c, (±)-3-(3-Furyl)-9-methyl-9-azabicyclo[3.3.1]non-2-ene Fumaric Acid Salt]	167 to 174 °C		5000 nM		2000 nM	660 nM	
CN1C2C=C(c3cncc(-c4cccnc4)c3)CC1CCC2.O=C(O)/C=C/C(=O)O (racemic) [Compound 2b, (±)-9-Methyl-3-[5-(3-pyridyl)-3-pyridyl]-9-azabicyclo[3.3.1]non-2-ene Fumaric Acid Salt]	206 to 208 °C		240 nM		13 nM	17000 nM	
COc1cncc(C2=CC3CCCC(C2)N3C)c1 (racemic) (as salt: fumaric acid salt) [Compound 2a, (±)-3-[3-(5-Methoxy)-pyridyl]-9-methyl-9-azabicyclo[3.3.1]non-2-ene Fumaric Acid Salt]	125 to 126.5 °C						
COc1cncc(C2=CC3CCCC(C2)N3)c1 (racemic) [Compound 3d, (±)-9-H-3-(3-(5-methoxy)-pyridyl)-9-azabicyclo[3.3.1]non-2-ene]		3 nM	18 nM			17 nM	
C1=C(c2cccnc2)CC2CCCC1N2 (racemic) [Compound 11c, (±)-9-H-3-(3-Pyridyl)-9-azabicyclo[3.3.1]oct-2-ene Fumaric Acid Salt]		4.5 nM	46 nM			170 nM	
CN1C2C=C(c3cncc(-c4ccccc4)c3)CC1CCC2 (racemic) [Compound 3a, (±)-9-Methyl-3-[3-(5-phenyl)-pyridyl]-9-azabicyclo[3.3.1]non-2-ene Fumaric Acid Salt]			150 nM		25 nM	4100 nM	
CC(=O)Nc1cccc(C2=CC3CCCC(C2)N3C)c1.CC(=O)O (racemic) [Compound 2c, (±)-3-(3-Acetamidophenyl)-9-methyl-9-azabicyclo[3.3.1]non-2-ene Acetic Acid Salt]	59.9 to 63.4 °C		290000 nM		85000 nM	1700 nM	
COc1ccc(C2=CC3CCCC(C2)N3C)cn1 (racemic) (as salt: fumaric acid salt) [Compound 5b, (±)-3-[3-(6-Methoxy)-pyridyl)]-9-methyl-9-azabicyclo[3.3.1]non-2-ene Fumaric Acid Salt]	116 to 124 °C						
CN1C2C=C(c3cccc4ncccc34)CC1CCC2 (racemic)	142 to 144 °C						
CN1C2C=C(c3cc4ccccc4o3)CC1CCC2.O=C(O)/C=C/C(=O)O (racemic) [Compound 7c, (±)-3-(2-Benzofuryl)-9-methyl-9-azabicyclo[3.3.1]non-2-ene Fumaric Acid Salt]	184 to 186 °C	> 300000 nM		190 nM			
CN1C2C=C(c3ccc4ccccc4c3)CC1CCC2 (racemic) [Compound 8c, (±)-3-(2-Naphtyl)-9-methyl-9-azabicyclo[3.3.1]non-2-ene Oxalic Acid Salt]		> 300000 nM	> 300000 nM	370 nM			
C1=C(c2cccnc2)CC2CCCC1N2 (racemic) (as salt: fumaric acid salt) [Compound 11c, (±)-9-H-3-(3-Pyridyl)-9-azabicyclo[3.3.1]oct-2-ene Fumaric Acid Salt]	188.5 to 190 °C						
CN1C2C=C(c3ccc4ccccc4c3)CC1CCC2 (racemic) (as salt: oxalic acid salt) [Compound 8c, (±)-3-(2-Naphtyl)-9-methyl-9-azabicyclo[3.3.1]non-2-ene Oxalic Acid Salt]	87.9 to 92.2 °C						
